Read-outs that look alike come from different tables or passages of the source.
Key:
Type in all cases: in vivo
[1] = tested on: barnyardgrass (Echinochloa crus-galli); assay: Test C flooded paddy test: barnyardgrass; settings: Echinochloa crus-galli, scale 0 to 100 (0 no effect, 100 complete control), read-out: Plant response rating, Barnyardgrass; for pest or weed control at 62 g/ha: 62 g ai/ha; for pest or weed control at 250 g/ha: 250 g ai/ha; for pest or weed control at 125 g/ha: 125 g ai/ha
In short: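 Rating: visual, 0–100 (100 = complete control), versus untreated controls after 13 to 15 greenhouse days. Treatment went into paddy water held at 3 cm over the soil, on plants grown to two leaves.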

[2] = tested on: oilseed rape (Brassica napus); assay: Test D pre-/postemergence: oilseed rape
Description: (§1) Seeds of plant species selected from bluegrass (annual bluegrass, Poa annua), blackgrass (Alopecurus myosuroides), canarygrass (Phalaris minor), chickweed (common chickweed, Stellaria media), galium (catchweed bedstraw, Galium aparine), bromegrass, downy (downy bromegrass, Bromus tectorum), field poppy (Papaver rhoeas), field violet (Viola arvensis), foxtail, green (green foxtail, Setaria viridis), deadnettle (henbit deadnettle, Lamium amplexicaule), ryegrass, Italian (Italian ryegrass, Lolium multiflorum), kochia (Kochia scoparia), lambsquarters (Chenopodium album), oilseed rape (Brassica napus), pigweed (Amaranthus retroflexus), Russian thistle (Salsola iberica), chamomile (scentless chamomile, Matricaria inodora), speedwell (bird's-eye speedwell, Veronica persica), barley, spring (spring barley, Hordeum vulgare), wheat, spring (spring wheat, Triticum aestivum), buckwheat, wild (wild buckwheat, Polygonum convolvulus), mustard, wild (wild mustard, Sinapis arvensis), oat, wild (wild oat, Avena fatua), radish, wild (wild radish, Raphanus raphanistrum), windgrass (Apera spica-venti), barley, winter (winter barley, Hordeum vulgare), and wheat, winter (winter wheat, Triticum aestivum) were planted into a silt loam soil and treated preemergence with test chemicals formulated in a non-phytotoxic solvent mixture which included a surfactant. At the same time, these same crop and weed species were planted in pots containing the planting medium comprising spaghnum peat moss, vermiculite, wetting agent and starter nutrients and treated with postemergence applications of the test chemicals formulated in the same manner. Plants ranged in height from 2 to 18 cm (1- to 4-leaf stage).
(§2) Treated plants and controls were maintained in a controlled growth environment for 14 to 21 days after which time all species were compared to controls and visually evaluated. Plant response ratings, summarized in Table D, are based on a scale of 0 to 100 where 0 is no effect and 100 is complete control. A dash (-) response means no test result.

[3] = tested on: pigweed (Amaranthus retroflexus); assay: Test D pre-/postemergence: pigweed
Description: as §1, §2

[4] = tested on: foxtail, green (green foxtail, Setaria viridis); assay: Test D pre-/postemergence: foxtail, green
Description: as §1, §2

[5] = tested on: galium (catchweed bedstraw, Galium aparine); assay: Test D pre-/postemergence: galium; settings: for Plant response rating, Galium: scale 0 to 100
Description: as §1, §2

[6] = Flood (flooded paddy test), visual rating after 13 to 15 days
[7] = Postemergence, 31 g ai/ha, scale 0 to 100 (0 no effect, 100 complete control)
[8] = Postemergence, 62 g ai/ha, scale 0 to 100 (0 no effect, 100 complete control)
[9] = Postemergence, 125 g ai/ha, scale 0 to 100, 0 no effect, 100 complete control
[10] = Postemergence, 250 g ai/ha, scale 0 to 100 (0 no effect, 100 complete control)
[11] = Preemergence, 31 g ai/ha, scale 0 to 100, 0 no effect, 100 complete control
[12] = Preemergence, 62 g ai/ha, scale 0 to 100
[13] = Preemergence, 125 g ai/ha, scale 0 to 100
[14] = Preemergence, 250 g ai/ha, scale 0 to 100
[15] = Postemergence, 16 g ai/ha, scale 0 to 100
[16] = Preemergence, 16 g ai/ha, scale 0 to 100, 0 no effect, 100 complete control

Row | Structure (SMILES) | pest or weed control at 62 g/ha [1, 6] | pest or weed control at 250 g/ha [1, 6] | Plant response rating: Oilseed Rape [2, 7] | Plant response rating: Oilseed Rape [2, 8] | Plant response rating: Oilseed Rape [2, 9] | Plant response rating: Oilseed Rape [2, 10] | Plant response rating, Oilseed Rape [2, 11] | Plant response rating, Oilseed Rape [2, 12] | Plant response rating, Oilseed Rape [2, 13] | Plant response rating: Pigweed [3, 7] | Plant response rating: Pigweed [3, 8] | Plant response rating: Pigweed [3, 9] | Plant response rating: Pigweed [3, 10] | Plant response rating, Pigweed [3, 11] | Plant response rating: Foxtail, Green [4, 7] | Plant response rating: Foxtail, Green [4, 8] | Plant response rating: Foxtail, Green [4, 9] | Plant response rating: Galium [5, 7] | Plant response rating: Galium [5, 8] | Plant response rating: Galium [5, 9] | other results
1 | Cc1nn(-c2ccc(C(F)(F)F)cc2)nc1Oc1csc(C(F)(F)F)c1 [Compound 1, 4-methyl-2-[4-(trifluoromethyl)phenyl]-5-[[5-(trifluoromethyl)-3-thienyl]oxy]-2H-1,2,3-triazole] | 0% | 0% |  |  |  |  |  |  |  |  |  |  |  |  |  |  |  |  |  |  | 
2 | FC(F)(F)COc1nn(-c2ccc(C(F)(F)F)cc2)nc1Cc1ccnc(C(F)(F)F)c1 [Compound 14, 4-[[5-(2,2,2-trifluoroethoxy)-2-[4-(trifluoromethyl)phenyl]-2H-1,2,3-triazol-4-yl]methyl]-2-(trifluoromethyl)pyridine] | 50% | 70% | 30 | 70 | 90 | 100 | 0 | 0 | 30 | 100 | 100 | 100 | 100 | 20 | 10 | 25 | 30 | 45 | 55 | 55 | Plant response rating, Oilseed Rape [2, 14]: 40; Plant response rating, Pigweed [3, 12]: 70; Plant response rating, Pigweed [3, 13]: 90; Plant response rating, Pigweed [3, 14]: 100; Plant response rating: Foxtail, Green [4, 10]: 95; Plant response rating, Foxtail, Green [4, 11]: 0; Plant response rating, Foxtail, Green [4, 12]: 10; Plant response rating, Foxtail, Green [4, 13]: 75; Plant response rating, Foxtail, Green [4, 14]: 100; Plant response rating: Galium [5, 10]: 70; Plant response rating, Galium ([5]; Preemergence, 62 g ai/ha): 0; Plant response rating, Galium ([5]; Preemergence, 125 g ai/ha): 100; Plant response rating, Galium ([5]; Preemergence, 250 g ai/ha): 100
3 | COc1nn(-c2ccc(C(F)(F)F)cc2)nc1Cc1ccnc(C(F)(F)F)c1 [Compound 15, 4-[[5-methoxy-2-[4-(trifluoromethyl)phenyl]-2H-1,2,3-triazol-4-yl]methyl]-2-(trifluoromethyl)pyridine] | 65% | 75% | 100 | 70 | 100 | 100 | 0 | 10 | 20 | 80 | 80 | 100 | 100 | 20 | 30 | 80 | 75 | 55 | 70 | 100 | Plant response rating, Oilseed Rape [2, 15]: 70; Plant response rating, Oilseed Rape [2, 14]: 75; Plant response rating, Pigweed [3, 15]: 80; Plant response rating, Pigweed [3, 12]: 70; Plant response rating, Pigweed [3, 13]: 98; Plant response rating, Pigweed [3, 14]: 100; Plant response rating: Foxtail, Green [4, 10]: 100; Plant response rating, Foxtail, Green [4, 15]: 15; Plant response rating, Foxtail, Green [4, 11]: 70; Plant response rating, Foxtail, Green [4, 12]: 100; Plant response rating, Foxtail, Green [4, 13]: 100; Plant response rating, Foxtail, Green [4, 14]: 100; Plant response rating: Galium [5, 10]: 100; Plant response rating, Galium ([5]; Postemergence, 16 g ai/ha): 50; Plant response rating, Galium ([5]; Preemergence, 62 g ai/ha): 30; Plant response rating, Galium ([5]; Preemergence, 125 g ai/ha): 100; Plant response rating, Galium ([5]; Preemergence, 250 g ai/ha): 100
4 | COCc1nn(-c2ccc(C(F)(F)F)cc2)nc1Oc1cccc(OC(F)(F)F)c1 [Compound 115, 4-(methoxymethyl)-5-[3-(trifluoromethoxy)phenoxy]-2-[4-(trifluoromethyl)phenyl]-2H-1,2,3-triazole] |  | 60% |  |  |  |  |  |  |  |  |  |  |  |  |  |  |  |  |  |  | pest or weed control at 125 g/ha [1, 6]: 45%; pest or weed control at 62 g/ha ([1]; Flood): 40%
5 | FCc1nn(-c2ccc(C(F)(F)F)cc2)nc1Oc1cccc(OC(F)(F)F)c1 [Compound 116, 4-(fluoromethyl)-5-[3-(trifluoromethoxy)phenoxy]-2-[4-(trifluoromethyl)phenyl]-2H-1,2,3-triazole] |  | 60% |  |  |  |  |  |  |  |  |  |  |  |  |  |  |  |  |  |  | pest or weed control at 125 g/ha [1, 6]: 40%; pest or weed control at 62 g/ha ([1]; Flood): 35%
6 | COc1nn(-c2ccc(C(F)(F)F)cc2)nc1Cc1ccnc(C(F)F)c1 [Compound 138] |  |  | 95 | 100 | 100 | 100 |  |  |  | 95 | 95 | 100 | 100 |  | 40 | 75 | 80 | 75 | 80 | 90 | Plant response rating, Oilseed Rape [2, 15]: 85; Plant response rating, Pigweed [3, 15]: 90; Plant response rating: Foxtail, Green [4, 10]: 100; Plant response rating, Foxtail, Green [4, 15]: 20; Plant response rating: Galium [5, 10]: 100; Plant response rating, Galium ([5]; Postemergence, 16 g ai/ha): 60
7 | Cc1nn(-c2ccc(F)c(C(F)(F)F)c2)nc1Cc1ccnc(C(F)(F)F)c1 [Compound 156] |  |  | 100 | 100 | 100 |  | 0 | 85 | 100 | 90 | 90 | 95 |  | 85 | 25 | 25 | 65 | 75 | 75 | 80 | Plant response rating, Oilseed Rape [2, 15]: 100; Plant response rating, Oilseed Rape [2, 16]: 0; Plant response rating, Pigweed [3, 15]: 85; Plant response rating, Pigweed [3, 16]: 50; Plant response rating, Pigweed [3, 12]: 100; Plant response rating, Pigweed [3, 13]: 100; Plant response rating, Foxtail, Green [4, 15]: 10; Plant response rating, Foxtail, Green [4, 16]: 5; Plant response rating, Foxtail, Green [4, 11]: 10; Plant response rating, Foxtail, Green [4, 12]: 30; Plant response rating, Foxtail, Green [4, 13]: 100; Plant response rating, Galium ([5]; Postemergence, 16 g ai/ha): 70

— patent US9302999B2, “Substituted triazoles as herbicides” (E. I. DU PONT DE NEMOURS AND COMPANY, priority 2012, dated 2016)
